Measured values taken from patent US10660933B2, “Compositions and methods for inhibition of bacterial infections in human endocervix” (priority 2015, dated 2020).

Assays:
[1] = tested on: Neisseria gonorrhoeae MS11; test: Ng adherence, invasion, and transmigration assays on polarized epithelial cells; format: cell-based; details: for transmigration of MS11ΔOpa across the polarized T84 monolayer / Ng invasion into polarized T84 cells (gentamicin resistance): 6 h; for transmigration of MS11ΔOpa across the polarized T84 monolayer: ML-7 10 μM, PIK 100 μM, 2APB 10 μM, Y27632 10 μM; for Ng adherence to polarized T84 cells / Ng invasion into polarized T84 cells (gentamicin resistance): MS11ΔOpa, with inhibitors; for Ng adherence to polarized T84 cells: 3 h
Experimental: Ng adherence, invasion, and transmigration assays. The assays were performed as previously described. Briefly, polarized epithelial cells that were pretreated with or without the inhibitors for 1 h were incubated apically with Ng at 37° C. for 3 h for adherence and 6 h for invasion and transmigration assays with or without the inhibitors. Ng in the basolateral media were cultured and counted as transmigrated bacteria. Cells were washed and lysed to count adherent Ng. Cells were treated with gentamicin, washed, and lysed to count bacteria that were resistant to gentamicin treatment as invaded Ng.

cytoplasmic Ca2+ = test: Calcium imaging of Ng-inoculated polarized epithelial cells (FluoForte, Fluo-4); format: cell-based, human; details: MS11Opa+ and MS11ΔOpa-inoculated polarized epithelial cells, 4 h; 2APB 10 μM, BAPTA 50 μM
Text: Ng inoculation induces Ca^2+-dependent redistribution of active NMII in polarized epithelial cells. A major upstream signaling molecule of MLCK is calmodulin that is activated by Ca^2+. To investigate if Ca^2+ is involved in Ng induced redistribution of active NMII, we determined if Ng inoculation would induce Ca^2+ flux in polarized epithelial cells. We used two Ca^2+ indicators, FluoForte (FIGS. 7A and 7B) and Fluo-4 (FIG. 11) to determine the cytoplasmic Ca^2+ level. Polarized T84 (FIGS. 7A and 7B, and FIG. 11A and FIG. 11B) and HEC-1-B (FIG. 11C and FIG. 11D) were incubated apically with MS11Opa+ or MS11ΔOpa for 4 h. The cells were then loaded with the fluorescent Ca^2+ indicator, and the cell membrane marked by the membrane dye CellMask. Cells were imaged using 3D-CFM (FIG. 7A, and FIGS. 11A and 11C). The mean fluorescence intensity (MFI) of the Ca^2+ dyes in individual cells was measured to estimate the cytoplasmic level of Ca^2+ (FIG. 7B, and FIGS. 11B and 11D). […]
Calcium imaging. […] To quantify the intracellular Ca^2+ level, the cytoplasmic region of individual cells was manually selected based on the CellMask staining in randomly acquired confocal images, and the mean fluorescent intensity (MFI) of Fluoforte and Fluo-4 in the cytoplasmic region was measured using the NIH ImageJ software.

ZO1 = ZO1 distribution and cell morphology in Ng-infected human endocervical tissue explants; format: cell-based; details: MS11ΔOpa 24 h, ML-7 10 μM
Text: We determined if MS11ΔOpa can induce the disruption of the apical junction in human endocervical tissue. Sections of uninfected and infected tissue explants were stained for the junctional protein ZO1, Ng, and DNA and analyzed by 3D-CFM (FIG. 4G). We quantified junction disruption by determining the percentage of Ng associated epithelial cells that lost continuous apical staining of ZO1, using 3D reconstituted confocal images (FIG. 4G, right panels). […] In contrast to the recruitment of ZO1 to epithelial cells neighboring exfoliating cells in uninfected monolayers, no accumulation of ZO1 staining was observed around Ng infected exfoliating cells (FIG. 4I, arrows). […] Treatment with the MLCK inhibitor ML-7 restored both the morphology (FIG. 4G left panels) and apical distribution of ZO1 (FIG. 4H).
(§1) Immunofluorescence analysis of human endocervical tissue explants. […] The tissue was fixed, embedded in gelatin, cryopreserved, sectioned crossing the apical and basolateral surfaces of the epithelium, stained for ZO1 (BD Bioscience), pMLC (Cell Signaling Technology, Beverly, Mass.), and Ng (51) by specific antibodies, and nuclei by DAPI (Life Technologies, Carlsbad, Calif.), and analyzed using CFM (Zeiss LSM 710, Carl Zeiss Microscopy LLC, Oberkochen, Germany). […]

[2] = tested on: human endocervical tissue explants; test: Ng-induced epithelial exfoliation of human endocervical tissue explants (3D-CFM); format: cell-based; details: MS11ΔOpa, 24 h; ML-7 10 μM, PIK 100 μM
Experimental: Human endocervical tissue explants. The tissue explants were cultured as previously described. Endocervical tissues were obtained from patients undergoing voluntary hysterectomies and received within 24 h post-surgery. Samples were cut into ˜2.5 cm (L)×0.6 cm (W)×0.3 cm (H) pieces, incubated in CMRL-1066 (GIBCO, Gaithersburg, Md.) plus antibiotics for 24 h, and then switched to antibiotic-free media for 24 h.
as §1
To quantify epithelial exfoliation, the number of Ng associated cells localized on the top of the epithelial monolayer (exfoliated) and the total number of Ng associated epithelial cells was counted by visual inspection in each randomly acquired image, to determine the percentage of exfoliated cells. […] To quantify the redistribution of pMLC, the fluorescence intensity ratios (FIR) of pMLC staining at the apical to lateral in individual epithelial cells were determined using average FI as previously described.

| SMILES | transmigration of MS11ΔOpa across the polarized T84 monolayer [1] | Ng adherence to polarized T84 cells [1] | Ng invasion into polarized T84 cells (gentamicin resistance) [1] | MFI of the Ca2+ indicators (cytoplasmic Ca2+ level) (cytoplasmic Ca2+) | apical distribution of ZO1 (ZO1) | morphology of endocervical epithelial cells (ZO1) | epithelial exfoliation of human endocervical tissue explants [2] |
| --- | --- | --- | --- | --- | --- | --- | --- |
| NCCOB(c1ccccc1)c1ccccc1 [2APB] | significantly reduced the transmigration | none of these inhibitors had any significant effect | none of these inhibitors had any significant effect | back to the basal level | – | – | – |
| O=S(=O)(c1cccc2c(I)cccc12)N1CCCNCC1 [ML-7] | significantly reduced the transmigration | none of these inhibitors had any significant effect | none of these inhibitors had any significant effect | – | restored | restored | decreased the epithelial exfoliation of human endocervical tissue explants to the basal level |
